# What was measured:
# [1] = biological target: T1, G12D-mutant human KRAS (amino acid residues 1-188) (Homo sapiens, UniProt P01116, G12D); assay: KRAS Binding Disruption Assay (AlphaScreen; biotinylated KRpep-2d analogue or RAF1-RBD), G12D; conditions: KRAS G12D; geometric mean; read-out: KRAS GMean IC50 (uM) MUTATION: G12D
# T1 construct: G12D or G12C-mutant human KRAS (amino acid residues 1-188) with FLAG tag; made in house; host or cells: E. coli
# Procedure, shortened: (§1)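 Displacement format with mutant KRAS, biotinylated KRpep-2d analogue or RAF1-RBD (5-20 nM each) at pH 7.5 with 5 mM MgCl2.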
# [2] = biological target: T2, G12C-mutant human KRAS (amino acid residues 1-188) (Homo sapiens, UniProt P01116, G12C); assay: KRAS Binding Disruption Assay (AlphaScreen; biotinylated KRpep-2d analogue or RAF1-RBD), G12C; conditions: geometric mean, read-out: KRAS GMean IC50 (uM) MUTATION: G12C
# T2 construct: G12D or G12C-mutant human KRAS (amino acid residues 1-188) with FLAG tag; made in house; host or cells: E. coli
# T2 sequence (P01116 1-188 isoform P01116-2 G12C): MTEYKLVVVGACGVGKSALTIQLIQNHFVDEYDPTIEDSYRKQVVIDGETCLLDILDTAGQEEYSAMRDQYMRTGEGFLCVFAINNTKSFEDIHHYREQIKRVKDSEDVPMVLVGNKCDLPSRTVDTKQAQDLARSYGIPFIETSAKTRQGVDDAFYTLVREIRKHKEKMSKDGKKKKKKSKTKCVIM
# Procedure, shortened: as §1
# T1 sequence (P01116 1-188 isoform P01116-2 G12D): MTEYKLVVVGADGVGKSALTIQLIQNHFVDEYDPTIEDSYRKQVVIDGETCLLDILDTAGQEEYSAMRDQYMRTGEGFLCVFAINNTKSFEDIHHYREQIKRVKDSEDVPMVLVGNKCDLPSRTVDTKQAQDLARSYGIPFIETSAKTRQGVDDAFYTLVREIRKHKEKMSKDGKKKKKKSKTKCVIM
IC50 [1],IC50 [2],SMILES
0.0001 to 10 µM,10 to 100 µM,"CN1CCC[C@H]1COc1nc(N2C[C@H]3CC[C@@H](C2)N3)c2ccc(-c3cc(N)nc4ccccc34)c(F)c2n1 [P-0760, 4-(4-((1R,5S)-3,8-diazabicyclo[3.2.1]octan-3-yl)-8-fluoro-2-(((S)-1-methylpyrrolidin-2-yl)methoxy)quinazolin-7-yl)quinolin-2-amine]"
0.0001 to 10 µM,100 to 1000 µM,"CN1CCC[C@H]1COc1nc(N2C[C@H]3CC[C@@H](C2)N3)c2ccc(-c3cc(=O)[nH]c4ccccc34)c(F)c2n1 [P-0761, 4-(4-((1R,5S)-3,8-diazabicyclo[3.2.1]octan-3-yl)-8-fluoro-2-(((S)-1-methylpyrrolidin-2-yl)methoxy)quinazolin-7-yl)quinolin-2(1H)-one]"
10 to 100 µM,10 to 100 µM,"CN1CCC[C@H]1COc1nc(N2C[C@H]3CC[C@@H](C2)N3)c2ccc(-c3nccc4cccc(C(F)(F)F)c34)c(F)c2n1 [P-0762, 4-((1R,5S)-3,8-diazabicyclo[3.2.1]octan-3-yl)-8-fluoro-2-(((S)-1-methylpyrrolidin-2-yl)methoxy)-7-(8-(trifluoromethyl)isoquinolin-1-yl)quinazoline]"
0.0001 to 10 µM,0.0001 to 10 µM,"Fc1ccc2[nH]cc(-c3ccc4c(N5C[C@H]6CC[C@@H](C5)N6)nc(OCC56CCCN5CCC6)nc4c3F)c2c1F [P-0763, 4-((1R,5S)-3,8-diazabicyclo[3.2.1]octan-3-yl)-7-(4,5-difluoro-1H-indol-3-yl)-8-fluoro-2-((tetrahydro-1H-pyrrolizin-7a(5H)-yl)methoxy)quinazoline]"
0.0001 to 10 µM,0.0001 to 10 µM,"Fc1c(-c2c[nH]c3cccc(F)c23)ccc2c(N3C[C@H]4CC[C@@H](C3)N4)nc(OCC34CCCN3CCC4)nc12 [P-0764, 4-((1R,5S)-3,8-diazabicyclo[3.2.1]octan-3-yl)-8-fluoro-7-(4-fluoro-1H-indol-3-yl)-2-((tetrahydro-1H-pyrrolizin-7a(5H)-yl)methoxy)quinazoline]"
0.0001 to 10 µM,0.0001 to 10 µM,"Fc1ccc2[nH]cc(-c3c(Cl)cc4c(N5C[C@H]6CC[C@@H](C5)N6)nc(OCC56CCCN5CCC6)nc4c3F)c2c1F [P-0765, 4-((1R,5S)-3,8-diazabicyclo[3.2.1]octan-3-yl)-6-chloro-7-(4,5-difluoro-1H-indol-3-yl)-8-fluoro-2-((tetrahydro-1H-pyrrolizin-7a(5H)-yl)methoxy)quinazoline]"
0.0001 to 10 µM,10 to 100 µM,"O=C1CC(COc2nc(N3C[C@H]4CC[C@@H](C3)N4)c3ccc(-c4cc(O)cc5ccccc45)c(F)c3n2)CN1 (stereo partly drawn) [P-0766, 4-(((4-((1R,5S)-3,8-diazabicyclo[3.2.1]octan-3-yl)-8-fluoro-7-(3-hydroxynaphthalen-1-yl)quinazolin-2-yl)oxy)methyl)pyrrolidin-2-one]"
0.0001 to 10 µM,10 to 100 µM,"O=C1NCCC1COc1nc(N2C[C@H]3CC[C@@H](C2)N3)c2ccc(-c3cc(O)cc4ccccc34)c(F)c2n1 (stereo partly drawn) [P-0767, 3-(((4-((1R,5S)-3,8-diazabicyclo[3.2.1]octan-3-yl)-8-fluoro-7-(3-hydroxynaphthalen-1-yl)quinazolin-2-yl)oxy)methyl)pyrrolidin-2-one]"
0.0001 to 10 µM,10 to 100 µM,"CC(C)(O)COc1nc(N2C[C@H]3CC[C@@H](C2)N3)c2ccc(-c3cc(O)cc4ccccc34)c(F)c2n1 [P-0768, 4-(4-((1R,5S)-3,8-diazabicyclo[3.2.1]octan-3-yl)-8-fluoro-2-(2-hydroxy-2-methylpropoxy)quinazolin-7-yl)naphthalen-2-ol]"
0.0001 to 10 µM,10 to 100 µM,"Oc1cc(-c2ccc3c(N4C[C@H]5CC[C@@H](C4)N5)nc(CCNc4ncccn4)nc3c2F)c2ccccc2c1 [P-0769, 4-(4-((1R,5S)-3,8-diazabicyclo[3.2.1]octan-3-yl)-8-fluoro-2-(2-(pyrimidin-2-ylamino)ethyl)quinazolin-7-yl)naphthalen-2-ol]"
0.0001 to 10 µM,10 to 100 µM,"CC(=O)NCCc1nc(N2C[C@H]3CC[C@@H](C2)N3)c2ccc(-c3cc(O)cc4ccccc34)c(F)c2n1 [P-0770, N-(2-(4-((1R,5S)-3,8-diazabicyclo[3.2.1]octan-3-yl)-8-fluoro-7-(3-hydroxynaphthalen-1-yl)quinazolin-2-yl)ethyl)acetamide]"
0.0001 to 10 µM,10 to 100 µM,"CS(=O)(=O)NCCc1nc(N2C[C@H]3CC[C@@H](C2)N3)c2ccc(-c3cc(O)cc4ccccc34)c(F)c2n1 [P-0771, N-(2-(4-((1R,5S)-3,8-diazabicyclo[3.2.1]octan-3-yl)-8-fluoro-7-(3-hydroxynaphthalen-1-yl)quinazolin-2-yl)ethyl)methanesulfonamide]"
0.0001 to 10 µM,10 to 100 µM,"COc1ccc(CNCCc2nc(N3C[C@H]4CC[C@@H](C3)N4)c3ccc(-c4cc(O)cc5ccccc45)c(F)c3n2)cc1 [P-0772, 4-(4-((1R,5S)-3,8-diazabicyclo[3.2.1]octan-3-yl)-8-fluoro-2-(2-((4-methoxybenzyl)amino)ethyl)quinazolin-7-yl)naphthalen-2-ol]"
0.0001 to 10 µM,0.0001 to 10 µM,"CP(C)(=O)CC(=O)N1[C@@H]2CC[C@H]1CN(c1nc(OCC34CCCN3CCC4)nc3c(F)c(-c4cc(O)cc5ccccc45)ccc13)C2 [P-0773, 2-(dimethylphosphoryl)-1-((1R,5S)-3-(8-fluoro-7-(3-hydroxynaphthalen-1-yl)-2-((tetrahydro-1H-pyrrolizin-7a(5H)-yl)methoxy)quinazolin-4-yl)-3,8-diazabicyclo[3.2.1]octan-8-yl)ethan-1-one]"
0.0001 to 10 µM,0.0001 to 10 µM,"Fc1cc2c(N3C[C@H]4CC[C@@H](C3)N4)nc(OCC34CCCN3CCC4)nc2c(F)c1-c1c[nH]c2ccc(Cl)c(Cl)c12 [P-0774, 4-((1R,5S)-3,8-diazabicyclo[3.2.1]octan-3-yl)-7-(4,5-dichloro-1H-indol-3-yl)-6,8-difluoro-2-((tetrahydro-1H-pyrrolizin-7a(5H)-yl)methoxy)quinazoline]"
0.0001 to 10 µM,10 to 100 µM,"Oc1cc(-c2ccc3c(N4C[C@H]5CC[C@@H](C4)N5)nc(OCC4CCCCO4)nc3c2F)c2ccccc2c1 (stereo partly drawn) [P-0775, 4-(4-((1R,5S)-3,8-diazabicyclo[3.2.1]octan-3-yl)-8-fluoro-2-((tetrahydro-2H-pyran-2-yl)methoxy)quinazolin-7-yl)naphthalen-2-ol]"
0.0001 to 10 µM,10 to 100 µM,"Oc1cc(-c2ccc3c(N4C[C@H]5CC[C@@H](C4)N5)nc(OCC4CCCOC4)nc3c2F)c2ccccc2c1 (stereo partly drawn) [P-0776, 4-(4-((1R,5S)-3,8-diazabicyclo[3.2.1]octan-3-yl)-8-fluoro-2-((tetrahydro-2H-pyran-3-yl)methoxy)quinazolin-7-yl)naphthalen-2-ol]"
0.0001 to 10 µM,10 to 100 µM,"Cc1cc(COc2nc(N3C[C@H]4CC[C@@H](C3)N4)c3ccc(-c4cc(O)cc5ccccc45)c(F)c3n2)no1 [P-0777, 4-(4-((1R,5S)-3,8-diazabicyclo[3.2.1]octan-3-yl)-8-fluoro-2-((5-methylisoxazol-3-yl)methoxy)quinazolin-7-yl)naphthalen-2-ol]"
0.0001 to 10 µM,10 to 100 µM,"Oc1cc(-c2ccc3c(N4C[C@H]5CC[C@@H](C4)N5)nc(OCC4CC(F)(F)C4)nc3c2F)c2ccccc2c1 [P-0778, 4-(4-((1R,5S)-3,8-diazabicyclo[3.2.1]octan-3-yl)-2-((3,3-difluorocyclobutyl)methoxy)-8-fluoroquinazolin-7-yl)naphthalen-2-ol]"
0.0001 to 10 µM,10 to 100 µM,"Oc1cc(-c2ccc3c(N4C[C@H]5CC[C@@H](C4)N5)nc(OCC4CCCCC4)nc3c2F)c2ccccc2c1 [P-0779, 4-(4-((1R,5S)-3,8-diazabicyclo[3.2.1]octan-3-yl)-2-(cyclohexylmethoxy)-8-fluoroquinazolin-7-yl)naphthalen-2-ol]"
10 to 100 µM,100 to 1000 µM,"CN1CCC[C@H]1COc1nc(N2C[C@H]3CC[C@@H](C2)N3)c2cc(F)c(-c3c[nH]c4ncccc34)c(F)c2n1 [P-0780, 4-((1R,5S)-3,8-diazabicyclo[3.2.1]octan-3-yl)-6,8-difluoro-2-(((S)-1-methylpyrrolidin-2-yl)methoxy)-7-(1H-pyrrolo[2,3-b]pyridin-3-yl)quinazoline]"
10 to 100 µM,100 to 1000 µM,"CN1CCC[C@H]1COc1nc(N2C[C@H]3CC[C@@H](C2)N3)c2ccc(-c3nccc4ccc(F)cc34)c(F)c2n1 [P-0781, 4-((1R,5S)-3,8-diazabicyclo[3.2.1]octan-3-yl)-8-fluoro-7-(7-fluoroisoquinolin-1-yl)-2-(((S)-1-methylpyrrolidin-2-yl)methoxy)quinazoline]"
0.0001 to 10 µM,10 to 100 µM,"CN1CCC[C@H]1COc1nc(N2C[C@H]3CC[C@@H](C2)N3)c2ccc(-c3cccc4cccc(Cl)c34)c(F)c2n1 [P-0782, 4-((1R,5S)-3,8-diazabicyclo[3.2.1]octan-3-yl)-7-(8-chloronaphthalen-1-yl)-8-fluoro-2-(((S)-1-methylpyrrolidin-2-yl)methoxy)quinazoline]"
0.0001 to 10 µM,100 to 1000 µM,"CN1CCC[C@H]1COc1nc(N2C[C@H]3CC[C@@H](C2)N3)c2ccc(-c3cccc4ccccc34)c(F)c2n1 [P-0783, 4-((1R,5S)-3,8-diazabicyclo[3.2.1]octan-3-yl)-8-fluoro-2-(((S)-1-methylpyrrolidin-2-yl)methoxy)-7-(naphthalen-1-yl)quinazoline]"
0.0001 to 10 µM,10 to 100 µM,"OCCOc1nc(N2C[C@H]3CC[C@@H](C2)N3)c2ccc(-c3cc(O)cc4ccccc34)c(F)c2n1 [P-0784, 4-(4-((1R,5S)-3,8-diazabicyclo[3.2.1]octan-3-yl)-8-fluoro-2-(2-hydroxyethoxy)quinazolin-7-yl)naphthalen-2-ol]"

# From patent publication US20230081426A1, “COMPOUNDS AND METHODS FOR KRAS MODULATION AND INDICATIONS THEREFOR” (Plexxikon Inc., priority 2020, published 2023)
